The values below come from patent publication US20230357765A1, “USE OF LONG NON-CODING RNAS IN MEDULLOBLASTOMA” (THE JOHNS HOPKINS UNIVERSITY, priority 2020, published 2023).

l = locked nucleic acid (LNA); d = 2'-deoxy (DNA)

Series [1] has as its system D425 Med and MED211 intracranial xenografts. The series can be described thus: Intracranial MB xenografts treated with JQ1, bioluminescence imaging and qPCR of tumors. The series is classed as in vivo, NOD-SCID mice. The note with it: JQ1 50 mg/kg intraperitoneal on alternating days for 14 days; versus DMSO. How it is done:
FIGS. 10A-10C. JQ1 regulates lnc-HLX-2-7 via MYC in vivo. (FIG. 10A) D425 Med and MED211 cells expressing luciferase were implanted into the […] of NOD-SCID mice. Seven days after injection, mice were administered DMSO or JQ1. Tumor formation was assessed by bioluminescence imaging. Changes in bioluminescent signal were examined weekly after tumor implantation. (FIG. 10B) Quantification of total photon counts from mice treated with JQ1 or DMSO. n=4, *p<0.05, Student’s t-test. (FIG. 10C) Expression levels of MYC and lnc-HLX-2-7 were examined by qPCR in DMSO or JQ1-treated mouse xenografts. Relative expression levels compared to those in the DMSO-treated tumor are indicated on the y-axis (n=4). Error bars indicate s.e.m. n=4, *p<0.01, Student’s t-test.
Medulloblastoma Xenografts (Intracranial). All mouse studies were approved and performed in accordance with the policies and regulations of the Animal Care and Use Committee of Johns Hopkins University. Intracranial MB xenografts were established by injecting D425 Med cells, MED211 cells, D425 Med cells with lnc- HLX-2-7 deleted, and MED211 cells with lnc-HLX-2-7 deleted into the cerebellums of NOD-SCID mice (Jackson Laboratory). […] Tumor growth was evaluated by weekly bioluminescence imaging using an in vivo spectral imaging system (IVIS Lumina II, Xenogen).

In series [2] the test system is lnc-HLX-2-7. The series can be described thus: lnc-HLX-2-7 expression in JQ1-treated cells, qRT-PCR. The class given is cell-based, human. Conditions: D425 Med and MED211 cells; JQ1 100 or 300 nM; relative to DMSO. The procedure: (§1) Cell Culture. Cell lines were authenticated using single tandem repeat profiling. D425 Med cells were cultured in DMEM/ F12 with 10% serum and 1% glutamate/penicillin/streptomycin. MED211 cells were cultured in medium composed of 30% Ham’s F12/70% DMEM, 1% antibiotic antimycotic, 20% B27 supplement, 5 µg/mL heparin, 20 ng/mL epidermal growth factor (EGF), and 20 ng/mL fibroblast growth factor 2. DAOY cells were cultured in DMEM with 10% serum and 1% glutamate/penicillin/streptomycin. All cells were grown in a humidified incubator at 37° C., 5% CO2. For blocking of bromodomain and extraterminal domain family (BET) bromodomain protein in D425 Med and MED211 cells, Jun Qi 1 (JQ1) (SML1524-5MG, Sigma Aldrich) was added, and the medium was changed every other day.
(§2) Quantitative Real-Time PCR. Total RNA was purified using the Direct-zol RNA Miniprep kit (Zymo Research). To obtain RNA from xenografts, tumor tissues were pulverized and then used for purification. Quantitative PCR was carried out using SYBR Green mRNA assays as previously described.^8 Primer sequences are listed in Tables 8-9 and Supplementary Table 2 (available online).
(§3) JQ1 Regulates lnc-HLX-2-7via MYC. […] In addition, downregulation of lnc-HLX-2-7 by JQ1 was also confirmed in vivo (FIGS. 10).
(Quantitative PCR measures a nucleic acid by following its amplification.)

A further series has as its system MYC. The series is described as follows: MYC expression in JQ1-treated cells, qRT-PCR. The class given is cell-based, human. The note with it: D425 Med and MED211 cells; JQ1 100 or 300 nM; relative to DMSO. The procedure:
as §1, §2, §3

The subject of series [3] is D425 Med and MED211 MB cells. The series can be described thus: Cell proliferation assay, living cells counted by trypan blue staining. The series is classed as cell-based, human. The procedure: as §1
Cell Proliferation, Apoptosis, and 3D Colony Formation Assays. Cells were plated in 96-well plates at 5 × 10^3 cells per well in triplicate. After 72 hours of ASO or siRNA transfection, living cells were counted by trypan blue staining. Apoptotic cells were analyzed using a GloMax luminometer (Promega) with conditions optimized for the Caspase-Glo 3/7 Assay. […] Colony number was determined using the EVE cell counter (Nano Entek), and staining intensity was analyzed using ImageJ software.

The next series relates to HLX. The series is described as follows: HLX expression after ASO treatment, qRT-PCR. The class given is cell-based, human. The note with it: D425 Med and MED211 cells treated with ASO.
Excerpt: FIG. 8. lnc-HLX-2-7regulates the expression of HLX coding gene. Expression levels of HLX in D425 Med and MED211 cells treated with ASO against the indicated genes in the x-axis. Relative expression level to mock is indicated in the y-axis. *p<0.01, Kruskal-Wallis analysis.
as §2
Antisense Oligonucleotides. Lnc-HLX-2-7 Antisense oligonucleotides (ASOs) were designed using the Integrated DNA Technologies (IDT) Antisense Design Tool (IDT). ASO knockdowns were performed with 50 nM (final concentration) locked nucleic acid (LNA) GapmeRs transfected with Lipofectamine 3000 (Thermo Fisher Scientific). All ASOs were modified with phosphorothioate (PS) linkages.

Series [4] has as its system D425 Med and MED211 MB cells. The series is described as follows: Apoptosis assay (Caspase-Glo 3/7). The series is classed as cell-based, human. The note with it: 72 hours after ASO transfection, P < 0.01. The procedure:
Cell Proliferation, Apoptosis, and 3D Colony Formation Assays. Cells were plated in 96-well plates at 5 × 10^3 cells per well in triplicate. After 72 hours of ASO or siRNA transfection, living cells were counted by trypan blue staining. Apoptotic cells were analyzed using a GloMax luminometer (Promega) with conditions optimized for the Caspase-Glo 3/7 Assay. For the 3D colony formation assay, cells were seeded in 24-well plates at a density of 1 × 10^2 cells/well and were stained with crystal violet solution approximately 14 days later. Colony number was determined using the EVE cell counter (Nano Entek), and staining intensity was analyzed using ImageJ software.

The subject of series [5] is lnc-HLX-2-7. The series can be described thus: ASO knockdown of lnc-HLX-2-7, expression by qRT-PCR. The note with it: D425 Med and MED211 cells; 50 nM ASO, Lipofectamine 3000; compared with ASO-Luc; P < 0.01. The class given is cell-based, human. The procedure: FIGS. 48A-48C. Confirmation of ASO design and knockdown effect of lnc-HLX-2-7. (FIG. 48A) Diagram showing the sites targeted by each ASO. (FIGS. 48B-48C) Expression level of lnc-HLX-2-7in D425 Med (FIG. 48B) and MED211 (FIG. 48C) cells treated with ASO against the indicated genes on the x-axis. ASOs were transfected at 50 nM for 72 h using Lipofectamine 3000 (Thermo Fisher Scientific, Waltham MA). The efficiency was determined by qRT-PCR. Relative expression level to luciferase (Luc) gene is indicated on the y-axis. *p<0.01, Kruskal-Wallis analysis.
as §2
Antisense Oligonucleotides. Lnc-HLX-2-7 Antisense oligonucleotides (ASOs) were designed using the Integrated DNA Technologies (IDT) Antisense Design Tool (IDT). ASO knockdowns were performed with 50 nM (final concentration) locked nucleic acid (LNA) GapmeRs transfected with Lipofectamine 3000 (Thermo Fisher Scientific). All ASOs were modified with phosphorothioate (PS) linkages. […]

Consider `Cc1sc2c(c1C)C(c1ccc(Cl)cc1)=N[C@@H](CC(=O)OC(C)(C)C)c1nnc(C)n1-2` [JQ1, Jun Qi 1 (JQ1)], for which the “lnc-HLX-2-7 expression in xenograft tumors” value in series [1] was “downregulation”. In addition, the lnc-HLX-2-7 expression result in the series on lnc-HLX-2-7 [2] is “downregulated”. The MYC expression result with MYC is listed as “downregulated”. The “cell growth (viable cell numbers) with JQ1” value in series [3] (effect suppressed by overexpression of lnc-HLX-2-7 (pcDNA4-lnc-HLX-2-7)) was “cell growth inhibition”.
As to “+T^∗+G^∗+A^∗G^∗A^∗G^∗A^∗T^∗T^∗A^∗A^∗T^∗C^∗T^∗A^∗G^∗A^∗T^∗+T^∗+G^∗+C (TGAGAGATTAATCTAGATTGC; sugars from the 5' end l3 d15 l3, all phosphorothioate, methylation of C not given here) [ASO-lnc-HLX-2-7]”, the HLX expression result with HLX was “significantly reduced”. The “MB cell growth (viable cell numbers)” value in series [3] (72 hours after ASO transfection, P < 0.01) is listed as “significantly suppressed”. Also, in series [4], the “apoptosis (apoptotic cell numbers)” value was “induced apoptosis”. The lnc-HLX-2-7 expression entry in the series on lnc-HLX-2-7 [5] is “significantly decreased”.
